This experiment has as its target T1, recombinant human 17β-hydroxysteroid dehydrogenase type 1 (Homo sapiens, UniProt P14061).
T1 construct: made in house; host or cells: Sf9 insect cells (baculovirus, Bac to Bac Expression System)
T1 sequence (P14061 1-328): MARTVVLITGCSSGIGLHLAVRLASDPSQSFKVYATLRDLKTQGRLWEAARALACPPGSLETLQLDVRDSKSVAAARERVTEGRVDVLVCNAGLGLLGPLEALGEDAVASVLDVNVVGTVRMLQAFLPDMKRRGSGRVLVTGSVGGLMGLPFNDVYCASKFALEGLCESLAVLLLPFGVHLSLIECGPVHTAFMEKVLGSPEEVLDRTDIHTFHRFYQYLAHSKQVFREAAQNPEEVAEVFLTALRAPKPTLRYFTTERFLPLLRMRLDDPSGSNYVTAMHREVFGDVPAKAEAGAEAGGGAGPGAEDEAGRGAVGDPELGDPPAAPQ
The experiment can be described thus: Inhibition of recombinant human 17β-hydroxysteroid dehydrogenase type 1 (conversion of 3H-estrone to estradiol, HPLC). Type of experiment: biochemical. As to conditions: 30 nM 3H-estrone, 1 mM NADPH, 30 min at RT; for inhibition at 0.1 µM: inhibitor 100 nM, read-out: Inhibition of rec. 17β-HSD1 (% inhibition), 100 nM; for inhibition at 1 µM: inhibitor 1 μm, read-out: Inhibition of rec. 17β-HSD1 (% inhibition), 1 μm. How it is done: 1. Inhibition of the 17β-hydroxysteroid Dehydrogenase Type 1 Enzyme
17β-HSD1 Purification: Recombinant baculovirus was generated by the “Bac to Bac Expression System” (Invitrogen). Recombinant bacmid was transfected to Sf9 insect cells using “Cellfectin Reagent” (Invitrogen). 60 h later cells were harvested; the microsomal fraction was isolated as described by Puranen et al. 1994. Aliquots were stored frozen until determination of enzymatic activity.
Assay—Inhibition of Recombinant Human 17β-hydroxysteroid Dehydrogenase Type 1:
Recombinant protein (0.1 μg/ml) was incubated in 20 mM KH2PO4 pH 7.4 with 30 nM 3H-estrone and 1 mM NADPH for 30 min at RT, in the presence of potential inhibitors at concentrations of 1 μM or 0.1 μM. Inhibitor stock solutions were prepared in DMSO. Final concentration of DMSO was adjusted to 1% in all samples. The enzyme reaction was stopped by addition of 10% trichloroacetic acid (final concentration). Samples were centrifuged in a microtiter plate at 4000 rpm for 10 min. Supernatants were applied to reverse phase HPLC on a Waters Symmetry C18 column, equipped with a Waters Sentry Guard column. Isocratic HPLC runs were performed at RT at a flow rate of 1 ml/min of acetonitrile:water 48:52 as running solvent. Radioactivity was monitored in the eluate by a Packard Flow Scintillation Analyzer. Total radioactivity for estrone and estradiol were determined in each sample and percent conversion of estrone to estradiol was calculated according to the following formula:
Percent inhibition was calculated as follows: % inhibition=100−% conversion

With `COc1ccc2c(c1)CC[C@H]1[C@@H]3[C@H](CCCCNC(=O)NCc4ccccc4)CC(=O)[C@@]3(C)CC[C@H]21` [Example 477], the inhibition at 0.1 µM is 31.7% and the inhibition at 1 µM came to 79.5%.
As to `COc1ccc2c(c1)CC[C@H]1[C@@H]3[C@H](CCCCNC(=O)Nc4ccc(OC)c(OC)c4)CC(=O)[C@@]3(C)CC[C@H]21` [Example 488], the inhibition at 0.1 µM was determined as 60.3% and the inhibition at 1 µM came out at 91.6%.
Taken in the same sequence, the figures for `C[C@]12CC[C@@H]3c4ccc(O)cc4CC[C@H]3[C@@H]1[C@@H](CCCCNC(=O)NCC1CCCCC1)CC2=O` [Example 491] were 56.9% and 83%.
`C[C@]12CC[C@@H]3c4ccc(O)cc4CC[C@H]3[C@@H]1[C@@H](CNS(=O)(=O)c1ccc3ccccc3c1)CC2=O` [Example 661]: the inhibition at 0.1 µM was found to be 40.1% and the inhibition at 1 µM came out at 82%.
Taken in the same sequence, the figures for `C[C@]12CC[C@@H]3c4ccc(O)cc4CC[C@H]3[C@@H]1[C@@H](CNS(=O)(=O)c1cccs1)CC2=O` [Example 662] were 76.9% and 94.8%.
Taken in the same sequence, the figures for `C[C@]12CC[C@@H]3c4ccc(O)cc4CC[C@H]3[C@@H]1[C@@H](CNS(=O)(=O)c1ccccc1)CC2=O` [Example 664] were 60.5% and 92.7%.
For `C[C@]12CC[C@@H]3c4ccc(O)cc4CC[C@H]3[C@@H]1[C@@H](CNS(=O)(=O)c1ccc(F)cc1)CC2=O` [Example 665] the same measures were 54.6% and 91.2%.
As for `C[C@]12CC[C@@H]3c4ccc(O)cc4CC[C@H]3[C@@H]1[C@@H](CNS(=O)(=O)c1ccc([N+](=O)[O-])cc1)CC2=O` [Example 667], the inhibition at 0.1 µM was determined as 30.3% and the inhibition at 1 µM amounted to 72.3%.
Regarding `COc1ccc(S(=O)(=O)NC[C@H]2CC(=O)[C@@]3(C)CC[C@@H]4c5ccc(O)cc5CC[C@H]4[C@H]23)cc1` [Example 668], the inhibition at 0.1 µM came to 52.4% and the inhibition at 1 µM is 88.3%.
For `Cc1cccc(S(=O)(=O)NC[C@H]2CC(=O)[C@@]3(C)CC[C@@H]4c5ccc(O)cc5CC[C@H]4[C@H]23)c1` [Example 677] the same measures were 36.9% and 83.7%.
For `C[C@]12CC[C@@H]3c4ccc(O)cc4CC[C@H]3[C@@H]1[C@@H](CNS(=O)(=O)c1cc(S(=O)(=O)c3ccccc3)cs1)CC2=O` [Example 679] the same measures were 26.5% and 74.6%.
For `CN(C[C@H]1CC(=O)[C@@]2(C)CC[C@@H]3c4ccc(O)cc4CC[C@H]3[C@H]12)S(=O)(=O)c1ccc2ccccc2c1` [Example 681] the same measures were 39.7% and 87.1%.
Consider `CN(C[C@H]1CC(=O)[C@@]2(C)CC[C@@H]3c4ccc(O)cc4CC[C@H]3[C@H]12)S(=O)(=O)c1cccs1` [Example 682], for which the inhibition at 0.1 µM amounted to 49.2% and the inhibition at 1 µM amounted to 91.8%.
Taken in the same sequence, the figures for `CN(C[C@H]1CC(=O)[C@@]2(C)CC[C@@H]3c4ccc(O)cc4CC[C@H]3[C@H]12)S(=O)(=O)c1ccccc1` [Example 684] were 31.3% and 86.9%.
For `CN(C[C@H]1CC(=O)[C@@]2(C)CC[C@@H]3c4ccc(O)cc4CC[C@H]3[C@H]12)S(=O)(=O)c1ccc(F)cc1` [Example 685] the same measures were 36% and 85.6%.
For `COc1ccc(S(=O)(=O)N(C)C[C@H]2CC(=O)[C@@]3(C)CC[C@@H]4c5ccc(O)cc5CC[C@H]4[C@H]23)cc1` [Example 688] the same measures were 47.4% and 91.3%.
Take `CN(C[C@H]1CC(=O)[C@@]2(C)CC[C@@H]3c4ccc(O)cc4CC[C@H]3[C@H]12)S(=O)(=O)c1cccc(Cl)c1` [Example 693]: the inhibition at 0.1 µM turned out to be 25.8% and the inhibition at 1 µM was 80.1%.
On to `Cc1cccc(S(=O)(=O)N(C)C[C@H]2CC(=O)[C@@]3(C)CC[C@@H]4c5ccc(O)cc5CC[C@H]4[C@H]23)c1` [Example 694], for which the inhibition at 0.1 µM is 34.6% and the inhibition at 1 µM turned out to be 87.3%.
With `CN(C[C@H]1CC(=O)[C@@]2(C)CC[C@@H]3c4ccc(O)cc4CC[C@H]3[C@H]12)S(=O)(=O)c1cc(S(=O)(=O)c2ccccc2)cs1` [Example 696], the inhibition at 0.1 µM is 35.7% and the inhibition at 1 µM turned out to be 80.5%.
Taken in the same sequence, the figures for `COc1ccc2c(c1)CC[C@H]1[C@@H]3[C@H](CCCOC(=O)Nc4ccc(Cl)cc4Cl)CC(=O)[C@@]3(C)CC[C@H]21` [Example 744] were 37.1% and 53.9%.
For `COc1ccc2c(c1)CC[C@H]1[C@@H]3[C@H](CCCOC(=O)Nc4ccc(C(F)(F)F)cc4)CC(=O)[C@@]3(C)CC[C@H]21` [Example 745] the same measures were 29.9% and 53.5%.
`COc1ccc2c(c1)CC[C@H]1[C@@H]3[C@H](CCCOC(=O)Nc4ccc5c(c4)OCO5)CC(=O)[C@@]3(C)CC[C@H]21` [Example 748]: the inhibition at 0.1 µM was 48.7% and the inhibition at 1 µM came to 90.6%.
With `COc1ccc2c(c1)CC[C@H]1[C@@H]3[C@H](CCCOC(=O)Nc4ccc(Cl)c(Cl)c4)CC(=O)[C@@]3(C)CC[C@H]21` [Example 749], the inhibition at 0.1 µM amounted to 29.8% and the inhibition at 1 µM was found to be 57.3%.
Take `COc1ccc2c(c1)CC[C@H]1[C@@H]3[C@H](CCCCOC(=O)Nc4cccc(F)c4)CC(=O)[C@@]3(C)CC[C@H]21` [Example 751]: the inhibition at 0.1 µM was determined as 27.7% and the inhibition at 1 µM turned out to be 67.7%.
As for `COc1ccc2c(c1)CC[C@H]1[C@@H]3[C@H](CCCCOC(=O)Nc4cccc([N+](=O)[O-])c4)CC(=O)[C@@]3(C)CC[C@H]21` [Example 754], the inhibition at 0.1 µM stood at 29.3% and the inhibition at 1 µM is 65.1%.
For `C[C@]12CC[C@@H]3c4ccc(O)cc4CC[C@H]3[C@@H]1[C@H](CCCO)CC2=O` [Example 823, 3-Hydroxy-15β-(3-Hydroxypropyl)-estra-1,3,5(10)-trien-17-one] the same measures were 76.1% and 97%.

The values above are taken from patent US8088758B2, “17β-hydroxysteroid dehydrogenase type I inhibitors” (Abbott Products GmbH, priority 2003, dated 2012).
